Experimental data: ChEMBL document CHEMBL3112480, “γ-Alkylidene-γ-lactones and isobutylpyrrol-2(5H)-ones analogues to rubrolides as inhibitors of biofilm formation by gram-positive and gram-negative bacteria” (Bioorg Med Chem Lett, 2014)
In brackets after ≈: the same amount, converted by molar mass.

Key:
[1] = tested on: Pseudomonas aeruginosa; experiment: Antibacterial activity against Pseudomonas aeruginosa ATCC 27853 assessed as effect on planktonic growth at 0.34 ug/ml after 20 hrs relative to control; type: functional
[2] = tested on: Streptococcus mutans; experiment: Antibacterial activity against Streptococcus mutans ATCC 25175 assessed as effect on planktonic growth at 21.9 ug/ml after 20 hrs relative to control; type: functional
[3] = tested on: Pseudomonas aeruginosa; experiment: Antibacterial activity against Pseudomonas aeruginosa ATCC 27853 assessed as effect on planktonic growth at 21.9 ug/ml after 20 hrs relative to control; type: functional
[4] = tested on: Streptococcus mutans; experiment: Antibacterial activity against Streptococcus mutans ATCC 25175 assessed as effect on planktonic growth at 0.34 ug/ml after 20 hrs relative to control; type: functional
[5] = tested on: Staphylococcus aureus; experiment: Antibacterial activity against Staphylococcus aureus ATCC 25923 assessed as effect on planktonic growth at 0.68 ug/ml after 20 hrs relative to control; type: functional
[6] = tested on: Staphylococcus aureus; experiment: Antibacterial activity against Staphylococcus aureus ATCC 25923 assessed as effect on planktonic growth at 87.5 ug/ml after 20 hrs relative to control; type: functional
[7] = tested on: Staphylococcus aureus; experiment: Antibacterial activity against Staphylococcus aureus ATCC 25923 assessed as effect on planktonic growth at 43.8 ug/ml after 20 hrs relative to control; type: functional
[8] = tested on: Pseudomonas aeruginosa; experiment: Antibacterial activity against Pseudomonas aeruginosa ATCC 27853 assessed as effect on planktonic growth at 43.8 ug/ml after 20 hrs relative to control; type: functional
[9] = tested on: Staphylococcus epidermidis; experiment: Antibacterial activity against Staphylococcus epidermidis ATCC 35547 assessed as effect on planktonic growth at 43.8 ug/ml after 20 hrs relative to control; type: functional
[10] = tested on: Staphylococcus aureus; experiment: Antibacterial activity against Staphylococcus aureus ATCC 25923 assessed as effect on planktonic growth at 0.34 ug/ml after 20 hrs relative to control; type: functional
[11] = tested on: Streptococcus mutans; experiment: Antibacterial activity against Streptococcus mutans ATCC 25175 assessed as effect on planktonic growth at 1.37 ug/ml after 20 hrs relative to control; type: functional
[12] = tested on: Streptococcus mutans; experiment: Antibacterial activity against Streptococcus mutans ATCC 25175 assessed as effect on planktonic growth at 0.68 ug/ml after 20 hrs relative to control; type: functional
[13] = tested on: Staphylococcus epidermidis; experiment: Antibacterial activity against Staphylococcus epidermidis ATCC 35547 assessed as effect on planktonic growth at 0.68 ug/ml after 20 hrs relative to control; type: functional
[14] = tested on: Streptococcus mutans; experiment: Antibacterial activity against Streptococcus mutans ATCC 25175 assessed as effect on planktonic growth at 5.5 ug/ml after 20 hrs relative to control; type: functional
[15] = tested on: Staphylococcus aureus; experiment: Antibacterial activity against Staphylococcus aureus ATCC 25923 assessed as effect on planktonic growth at 2.73 ug/ml after 20 hrs relative to control; type: functional
[16] = tested on: Staphylococcus epidermidis; experiment: Antibacterial activity against Staphylococcus epidermidis ATCC 35547 assessed as effect on planktonic growth at 87.5 ug/ml after 20 hrs relative to control; type: functional
[17] = tested on: Staphylococcus epidermidis; experiment: Antibacterial activity against Staphylococcus epidermidis ATCC 35547 assessed as effect on planktonic growth at 0.17 ug/ml after 20 hrs relative to control; type: functional
[18] = tested on: Staphylococcus epidermidis; experiment: Antibacterial activity against Staphylococcus epidermidis ATCC 35547 assessed as effect on planktonic growth at 2.73 ug/ml after 20 hrs relative to control; type: functional
[19] = tested on: Pseudomonas aeruginosa; experiment: Antibacterial activity against Pseudomonas aeruginosa ATCC 27853 assessed as effect on planktonic growth at 5.5 ug/ml after 20 hrs relative to control; type: functional
[20] = tested on: Staphylococcus aureus; experiment: Antibacterial activity against Staphylococcus aureus ATCC 25923 assessed as effect on planktonic growth at 21.9 ug/ml after 20 hrs relative to control; type: functional
[21] = tested on: Pseudomonas aeruginosa; experiment: Antibacterial activity against Pseudomonas aeruginosa ATCC 27853 assessed as inhibition of biofilm formation after 20 hrs by crystal-violet staining method; type: functional, organism-based; conditions: for IC50: ATCC 27853, 20 h
[22] = tested on: Staphylococcus epidermidis; experiment: Antibacterial activity against Staphylococcus epidermidis ATCC 35547 assessed as effect on planktonic growth at 21.9 ug/ml after 20 hrs relative to control; type: functional
[23] = tested on: Streptococcus mutans; experiment: Antibacterial activity against Streptococcus mutans ATCC 25175 assessed as effect on planktonic growth at 87.5 ug/ml after 20 hrs relative to control; type: functional
[24] = tested on: Pseudomonas aeruginosa; experiment: Antibacterial activity against Pseudomonas aeruginosa ATCC 27853 assessed as effect on planktonic growth at 1.37 ug/ml after 20 hrs relative to control; type: functional
[25] = tested on: Staphylococcus aureus; experiment: Antibacterial activity against Staphylococcus aureus ATCC 25923 assessed as effect on planktonic growth at 0.17 ug/ml after 20 hrs relative to control; type: functional
[26] = tested on: Staphylococcus aureus; experiment: Antibacterial activity against Staphylococcus aureus ATCC 25923 assessed as effect on planktonic growth at 10.9 ug/ml after 20 hrs relative to control; type: functional
[27] = tested on: Streptococcus mutans; experiment: Antibacterial activity against Streptococcus mutans ATCC 25175 assessed as effect on planktonic growth at 2.73 ug/ml after 20 hrs relative to control; type: functional
[28] = tested on: Staphylococcus epidermidis; experiment: Antibacterial activity against Staphylococcus epidermidis ATCC 35547 assessed as effect on planktonic growth at 5.5 ug/ml after 20 hrs relative to control; type: functional
[29] = tested on: Staphylococcus epidermidis; experiment: Antibacterial activity against Staphylococcus epidermidis ATCC 35547 assessed as inhibition of biofilm formation after 20 hrs by crystal-violet staining method; type: functional, organism-based; conditions: for IC50: ATCC 35547, 20 h
[30] = tested on: Pseudomonas aeruginosa; experiment: Antibacterial activity against Pseudomonas aeruginosa ATCC 27853 assessed as effect on planktonic growth at 0.68 ug/ml after 20 hrs relative to control; type: functional
[31] = tested on: Streptococcus mutans; experiment: Antibacterial activity against Streptococcus mutans ATCC 25175 assessed as effect on planktonic growth at 0.17 ug/ml after 20 hrs relative to control; type: functional
[32] = tested on: Staphylococcus aureus; experiment: Antibacterial activity against Staphylococcus aureus ATCC 25923 assessed as effect on planktonic growth at 1.37 ug/ml after 20 hrs relative to control; type: functional
[33] = tested on: Streptococcus mutans; experiment: Antibacterial activity against Streptococcus mutans ATCC 25175 assessed as effect on planktonic growth at 43.8 ug/ml after 20 hrs relative to control; type: functional
[34] = tested on: Staphylococcus epidermidis; experiment: Antibacterial activity against Staphylococcus epidermidis ATCC 35547 assessed as effect on planktonic growth at 10.9 ug/ml after 20 hrs relative to control; type: functional
[35] = tested on: Pseudomonas aeruginosa; experiment: Antibacterial activity against Pseudomonas aeruginosa ATCC 27853 assessed as effect on planktonic growth at 87.5 ug/ml after 20 hrs relative to control; type: functional
[36] = tested on: Staphylococcus epidermidis; experiment: Antibacterial activity against Staphylococcus epidermidis ATCC 35547 assessed as effect on planktonic growth at 0.34 ug/ml after 20 hrs relative to control; type: functional
[37] = tested on: Staphylococcus aureus; experiment: Antibacterial activity against Staphylococcus aureus ATCC 25923 assessed as effect on planktonic growth at 5.5 ug/ml after 20 hrs relative to control; type: functional
[38] = tested on: Pseudomonas aeruginosa; experiment: Antibacterial activity against Pseudomonas aeruginosa ATCC 27853 assessed as effect on planktonic growth at 10.9 ug/ml after 20 hrs relative to control; type: functional
[39] = tested on: Streptococcus mutans; experiment: Antibacterial activity against Streptococcus mutans ATCC 25175 assessed as effect on planktonic growth at 10.9 ug/ml after 20 hrs relative to control; type: functional
[40] = tested on: Staphylococcus epidermidis; experiment: Antibacterial activity against Staphylococcus epidermidis ATCC 35547 assessed as effect on planktonic growth at 1.37 ug/ml after 20 hrs relative to control; type: functional
[41] = tested on: Pseudomonas aeruginosa; experiment: Antibacterial activity against Pseudomonas aeruginosa ATCC 27853 assessed as effect on planktonic growth at 2.73 ug/ml after 20 hrs relative to control; type: functional
[42] = tested on: Pseudomonas aeruginosa; experiment: Antibacterial activity against Pseudomonas aeruginosa ATCC 27853 assessed as effect on planktonic growth at 0.17 ug/ml after 20 hrs relative to control; type: functional

COc1ccc(C)cc1C1=C(Br)C(=O)N(CC(C)C)C1(O)Cc1ccccc1Cl (stereo unspecified)
Activity [1]: -4.5% | Activity [2]: 39.8% | Activity [3]: -5.6% | Activity [4]: 11.1% | Activity [5]: -2.5% | Activity [6]: 16.5% | Activity [7]: 2.25% | Activity [8]: 17.1% | Activity [9]: 48.3% | Activity [10]: -0.5% | Activity [11]: 12.6% | Activity [12]: 13% | Activity [13]: 2.7% | Activity [14]: 35.6% | Activity [15]: 0.5% | Activity [16]: 60.7% | Activity [17]: 6% | Activity [18]: 2.8% | Activity [19]: -17.6% | Activity [20]: -10.75% | inhibition [21]: Dose-dependent effect | IC50 [21]: > 87.5 µg/mL | Activity [22]: 34.6% | Activity [23]: 15.3% | Activity [24]: -7.4% | Activity [25]: -1.25% | Activity [26]: -6.75% | Activity [27]: 30.7% | Activity [28]: 16.5% | inhibition [29]: Dose-dependent effect | IC50 [29]: > 87.5 µg/mL | Activity [30]: -4.7% | Activity [31]: 7.3% | Activity [32]: -3% | Activity [33]: 27.2% | Activity [34]: 22.6% | Activity [35]: 32.5% | Activity [36]: 24.8% | Activity [37]: 5% | Activity [38]: -17.5% | Activity [39]: 28.7% | Activity [40]: 6.4% | Activity [41]: -20.3% | Activity [42]: -2.5%

COc1ccc(Cl)cc1C1=C(Br)C(=O)N(CC(C)C)/C1=C\c1ccccc1Br
Activity [1]: -4% | Activity [2]: 10.4% | Activity [3]: -9.6% | Activity [4]: 10.4% | Activity [5]: 12.2% | Activity [6]: 48% | Activity [7]: 23.6% | Activity [8]: -6.6% | Activity [9]: 13.5% | Activity [10]: 17.2% | Activity [11]: 8.5% | Activity [12]: 11% | Activity [13]: -5.2% | Activity [14]: -1.6% | Activity [15]: 2.7% | Activity [16]: 6.9% | Activity [17]: -2.5% | Activity [18]: -6% | Activity [19]: -5.5% | Activity [20]: 7.5% | inhibition [21]: Dose-dependent effect | IC50 [21]: 0.7 µg/mL (≈ 1.33 µM) | Activity [22]: 2.1% | Activity [23]: 23.4% | Activity [24]: 0.4% | Activity [25]: 11.2% | Activity [26]: -1.2% | Activity [27]: 9.6% | Activity [28]: -5.7% | inhibition [29]: Dose-dependent effect | IC50 [29]: > 87.5 µg/mL | Activity [30]: -0.1% | Activity [31]: 12.4% | Activity [32]: 12.4% | Activity [33]: 7.4% | Activity [34]: -3.2% | Activity [35]: 10% | Activity [36]: -0.2% | Activity [37]: 2.5% | Activity [38]: -11.5% | Activity [39]: -3.3% | Activity [40]: -3.8% | Activity [41]: -3.1% | Activity [42]: -2.5%

COc1ccccc1C1=C(Br)C(=O)N(CC(C)C)/C1=C\c1ccc(C(F)(F)F)cc1
Activity [1]: -1.7% | Activity [2]: -11.6% | Activity [3]: 53.2% | Activity [4]: 0.6% | Activity [5]: -18.1% | Activity [6]: 1.8% | Activity [7]: -15.4% | Activity [8]: 44% | Activity [9]: 37.8% | Activity [10]: -14.7% | Activity [11]: 10.7% | Activity [12]: 5.5% | Activity [13]: -13.2% | Activity [14]: -3% | Activity [15]: -35.6% | Activity [16]: -6.3% | Activity [17]: -22.1% | Activity [18]: -21.2% | Activity [19]: -1.7% | Activity [20]: -29.3% | inhibition [21]: Dose-dependent effect | Activity [22]: 38.7% | Activity [23]: 3.6% | Activity [24]: -5.9% | Activity [25]: -5.8% | Activity [26]: -33.8% | Activity [27]: 14% | Activity [28]: -14.8% | inhibition [29]: Dose-dependent effect | IC50 [29]: 23 µg/mL (≈ 47.9 µM) | Activity [30]: 0.1% | Activity [31]: 0.3% | Activity [32]: -30.9% | Activity [33]: -13.5% | Activity [34]: 6.6% | Activity [35]: 35.2% | Activity [36]: -17% | Activity [37]: -33.5% | Activity [38]: 35.6% | Activity [39]: -12.9% | Activity [40]: -17.9% | Activity [41]: -9.2% | Activity [42]: -2.1%
